Results from patent US6331555A, “Treatment of platelet derived growth factor related disorders such as cancers” (priority 1999, dated 2001).
Where “and” joins values, the source holds several entries; their conditions need not be identical. Equal entries are not always repeated. Where two headings read alike, the source gives them in different places.

Key:
HER2 = experiment: Receptor tyrosine kinase inhibition, HER2; format: cell-based; conditions: for IC50: read-out: HER2 IC50
Experimental: (§1) For western blotting, cells were plated in 2 mL growth medium into 6-well dishes (500,000 cells per well) and allowed to attach overnight. The medium was replaced with 2 mL MCDB 105 (UCSF Cell Culture Facility) supplemented with 1% FBS. The plates were then incubated overnight at 37° C., ambient CO2. […] After a 7 min incubation at room temperature with ligand, the plates were put on ice and washed three times with 1 mL ice-cold PBS plus 1 mM orthovanadate. Lysis was achieved by pipetting cells in 0.5 mL of buffer containing 50 mM Tris, pH 7.4, 10% glycerol, 1% NP-40, 2 mM EDTA, 1 mM sodium vanadate (Na3 VO4), 10 mM pyrophosphate, 1 mM PMSF, […]. A 300 μL aliquot of each lysate was immediately added to 100 μL 4×Laemmli sample buffer ([…] Tris pH 6.9, 20% glycerol, 7% SDS, 5 mM EDTA, 5% β-mercaptoethanol) containing phosphatase inhibitors, 2 mM Na3 VO4 and 10 mM pyrophosphate. Samples were boiled for 5 min, frozen in dry ice-ethanol, and stored at -80° C. Proteins were resolved by SDS-PAGE (Bio-Rad Miniprotean II) and transferred to nitrocellulose membrane (Schleicher & Schuell) at 120 volts for 1 hr at room temperature in buffer containing 25 mM Tris pH 8.3, 20% methanol, 0.2 M glycine, 0.1% SDS. The integrity of the protein-to-membrane transfer was determined by staining with 1% Ponceau S in 5% acetic acid for 5 min. After destaining in several distilled water rinses, the membrane was soaked overnight in blocking buffer containing 5% milk in Tris-buffered saline, 0.05% Tween 20. Phosphotyresine was detected by incubating the membrane (1 hr at room temperature) with an anti-phosphotyosine antiserum diluted in blocking buffer at 1:3000. For C6 cells, PDGF-β receptor content in the lysates was confirmed in duplicate sample lanes by western blotting using an antibody specific for PDGF-β receptor (UBI). The antibodies were visualized using ECL reagent from Amersham and by exposure to Fuji RX film.
(§2) For ELISA assays, cells were grown to 80-90% confluency in growth medium and seeded in 96-well tissue culture plates in 0.5% serum at 25,000 to 30,000 cells per well. After overnight incubation in 0.5% serum-containingmedium, cells were changed to serum-free medium and treated with test compound for 2 hr in a 5% CO2, 37° C. incubator. Cells were then stimulated with ligand for 5-10 min followed by lysis with HNTG (20 mM Hepes, 150 mM NaCl, 10% glycerol, 5 mM EDTA, 5 mM Na3 VO4 0.2% Triton X-100, and 2 mM NaPyr). Cell lysates (0.5 mg/well in PBS) were transferred to ELISA plates previously coated with receptor-specific antibody and which had been blocked with 5% milk in TBST (50 mM Tris-HCl pH 7.2, 150 mM NaCl and 0.1% Triton X-100) at room temperature for 30 min. Lysates were incubated with shaking for 1 hr at room temperature. The plates were washed with TBST four times and then incubated with polyclonol anti-phosphotyrosine antibody at room temperature for 30 min. Excess anti-phosphotyrosine antibody was removed by rinsing the plate with TBST four times. Goat anti-rabbit IgG antibody was added to the ELISA plate for 30 min at room temperature followed by rinsing with TBST four more times.
(§3) The ability of different compound to inhibit different receptor tyrosine kinases was tested.

PDGFR [1] = experiment: Receptor tyrosine kinase inhibition, PDGFR; format: cell-based
Experimental: as §1, with “The medium was replaced with 2 mL MCDB 105 (UCSF Cell Culture Facility) supplemented with 1% FBS.” left out, “Proteins were resolved by SDS-PAGE (Bio-Rad Miniprotean II) and transferred to nitrocellulose membrane (Schleicher & Schuell) at 120 volts for 1 hr at room temperature in buffer containing 25 mM Tris pH 8.3, 20% methanol, 0.2 M glycine, 0.1% SDS.” left out, “For C6 cells, PDGF-β receptor content in the lysates was confirmed in duplicate sample lanes by western blotting using an antibody specific for PDGF-β receptor (UBI).” left out
(§4) For ELISA assays, cells were grown to 80-90% confluency in growth medium and seeded in 96-well tissue culture plates in 0.5% serum at 25,000 to 30,000 cells per well. After overnight incubation in 0.5% serum-containingmedium, cells were changed to serum-free medium and treated with test compound for 2 hr in a 5% CO2, 37° C. incubator. […] Lysates were incubated with shaking for 1 hr at room temperature. The plates were washed with TBST four times and then incubated with polyclonol anti-phosphotyrosine antibody at room temperature for 30 min. Excess anti-phosphotyrosine antibody was removed by rinsing the plate with TBST four times. Goat anti-rabbit IgG antibody was added to the ELISA plate for 30 min at room temperature followed by rinsing with TBST four more times.
as §3

EGFR = target: T1, EGFR (Homo sapiens, UniProt P00533); experiment: Receptor tyrosine kinase inhibition, EGFR; format: cell-based; conditions: for IC50: read-out: EGFR ID50
T1 construct: expressed in transfected cells; host or cells: NIH3T3 mouse fibroblasts, retroviral vector
Experimental: as §1, §2, §3

PDGFR [2] = target: T2, PDGFR (Homo sapiens, UniProt P09619); experiment: PDGF-stimulated receptor phosphorylation in U1242 cells, ELISA; format: cell-based; design: U1242 (PDGF-β receptor); host or cells: U1242 MG glioma cells; conditions: 100 ng/ml PDGF-BB; read-out: ELISA P-TYR U1242 IC50
Experimental: as §2, with “Cell lysates (0.5 mg/well in PBS) were transferred to ELISA plates previously coated with receptor-specific antibody and which had been blocked with 5% milk in TBST (50 mM Tris-HCl pH 7.2, 150 mM NaCl and 0.1% Triton X-100) at room temperature for 30 min.” left out
U1242 MG cells were plated in 96-well plates at a concentration of 5×10^4 cells/well in cultured media containing 0.5% FBS. The cells were incubated for 24 hours. The cells were then treated with a particular compound for 2 hours followed by the addition of 100 ng/ml PDGF-BB and incubation for 10 minutes.
Cells were lysed in 0.2 M Hepes, 0.15 M NaCl, 10% V/V glycerol, 0.04% Triton X-100, 5 mM EDTA, 5 MM Na^+ vanadate and […] Na^+ pyrophosphate. Cell lysates were then added to an ELISA plate coated with an anti-PDGF receptor antibody (Genzyme). ELISA plates were coated at […] of antibody/well in […] of PBS for 18 hours at 4° C. prior to the addition of the lysate.
The lysate was incubated in the coated plates for 1 hour and then washed four times in TBST (35 mM Tris-HCl pH 7.0, 0.15 M NaCl, 0.1% Triton X-100). Anti-phosphotyrosine antibody ([…] in PBS) was added and the mixture was incubated for 30 minutes at room temperature. The wells were then washed four times in TBST, a secondary antibody conjugated to POD (TAGO) was added to each well, and the treated wells were incubated for 30 minutes at room temperature. The wells were then washed four times in TBST, ABTS/H2 O2 solution was added to each well and the wells were incubated for two minutes. Absorbance was then measured at 410 nm.

PDGFR [3] = target: T2, PDGFR; experiment: Receptor tyrosine kinase inhibition, PDGFR; format: cell-based; design: U1242 (PDGF-β receptor); host or cells: U1242 glioma cells (ELISA)
Experimental: as §1, with “The medium was replaced with 2 mL MCDB 105 (UCSF Cell Culture Facility) supplemented with 1% FBS.” left out, “Proteins were resolved by SDS-PAGE (Bio-Rad Miniprotean II) and transferred to nitrocellulose membrane (Schleicher & Schuell) at 120 volts for 1 hr at room temperature in buffer containing 25 mM Tris pH 8.3, 20% methanol, 0.2 M glycine, 0.1% SDS.” left out, “For C6 cells, PDGF-β receptor content in the lysates was confirmed in duplicate sample lanes by western blotting using an antibody specific for PDGF-β receptor (UBI).” left out
as §4, §3

FLK-1 = target: T3, FLK-1 (Mus musculus, UniProt P35918); experiment: Receptor tyrosine kinase inhibition, FLK-1; format: cell-based; conditions: read-out: FLK-1 IC50
T3 construct: expressed in transfected cells; host or cells: NIH3T3 mouse fibroblasts, retroviral vector
Experimental: as §1, §2, §3

PDGF-R (U1242) = target: T4, PDGF-R (U1242) (Homo sapiens, UniProt P09619); experiment: U1242 kinase (PDGF-R activity); format: cell-based
T4 construct: U1242 (PDGF-β receptor); host or cells: U1242 MG glioma cells
Experimental: as §1, with “The medium was replaced with 2 mL MCDB 105 (UCSF Cell Culture Facility) supplemented with 1% FBS.” left out, “Proteins were resolved by SDS-PAGE (Bio-Rad Miniprotean II) and transferred to nitrocellulose membrane (Schleicher & Schuell) at 120 volts for 1 hr at room temperature in buffer containing 25 mM Tris pH 8.3, 20% methanol, 0.2 M glycine, 0.1% SDS.” left out, “For C6 cells, PDGF-β receptor content in the lysates was confirmed in duplicate sample lanes by western blotting using an antibody specific for PDGF-β receptor (UBI).” left out
as §4
PDGF-R activity, C6 SRB, and in vivo efficacy were measured using the procedures described in the appendices above.

C6 cells = experiment: C6 SRB growth assay; format: cell-based, rat; conditions: Rattus norvegicus, C6; read-out: C6 SRB IC50
[4] = W = done in Western assay; read-out: PDGFR IC50 (W)
[5] = W = done in Western assay, read-out: U1242 KINASE IC50 (W)

T3 sequence (P35918 20-1345): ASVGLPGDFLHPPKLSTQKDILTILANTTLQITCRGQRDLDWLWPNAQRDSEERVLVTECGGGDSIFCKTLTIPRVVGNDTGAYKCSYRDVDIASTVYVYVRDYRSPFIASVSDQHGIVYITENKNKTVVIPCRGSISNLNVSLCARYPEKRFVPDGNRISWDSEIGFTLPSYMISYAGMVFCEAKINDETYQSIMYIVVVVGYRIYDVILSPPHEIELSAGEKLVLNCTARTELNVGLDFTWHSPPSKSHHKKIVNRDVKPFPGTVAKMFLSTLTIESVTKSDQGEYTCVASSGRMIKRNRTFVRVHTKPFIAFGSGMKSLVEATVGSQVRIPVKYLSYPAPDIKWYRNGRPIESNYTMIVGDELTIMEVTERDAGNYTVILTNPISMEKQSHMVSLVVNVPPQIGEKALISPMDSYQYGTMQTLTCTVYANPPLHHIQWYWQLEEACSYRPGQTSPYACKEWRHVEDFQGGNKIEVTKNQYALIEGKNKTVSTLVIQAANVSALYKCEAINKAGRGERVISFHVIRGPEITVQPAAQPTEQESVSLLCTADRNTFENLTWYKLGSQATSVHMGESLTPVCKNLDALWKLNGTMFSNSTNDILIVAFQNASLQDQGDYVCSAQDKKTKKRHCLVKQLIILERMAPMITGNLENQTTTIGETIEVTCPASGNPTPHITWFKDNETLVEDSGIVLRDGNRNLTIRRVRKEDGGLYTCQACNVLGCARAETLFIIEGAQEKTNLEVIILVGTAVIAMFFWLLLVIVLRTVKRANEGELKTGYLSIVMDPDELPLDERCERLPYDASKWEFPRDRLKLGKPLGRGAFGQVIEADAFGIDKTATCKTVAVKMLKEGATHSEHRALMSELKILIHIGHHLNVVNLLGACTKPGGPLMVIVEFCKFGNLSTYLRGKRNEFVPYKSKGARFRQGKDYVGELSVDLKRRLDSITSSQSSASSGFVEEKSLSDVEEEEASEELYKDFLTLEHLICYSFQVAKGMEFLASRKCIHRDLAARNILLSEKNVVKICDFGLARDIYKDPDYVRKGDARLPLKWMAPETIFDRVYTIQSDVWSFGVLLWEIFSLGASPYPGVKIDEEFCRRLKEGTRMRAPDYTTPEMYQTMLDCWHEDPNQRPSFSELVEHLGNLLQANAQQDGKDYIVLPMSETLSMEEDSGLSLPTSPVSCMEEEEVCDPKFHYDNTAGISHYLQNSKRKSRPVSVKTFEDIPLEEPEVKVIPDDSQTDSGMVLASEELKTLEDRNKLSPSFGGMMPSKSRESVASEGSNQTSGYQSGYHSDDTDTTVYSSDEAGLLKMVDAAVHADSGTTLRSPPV
T1 sequence (P00533 25-1210): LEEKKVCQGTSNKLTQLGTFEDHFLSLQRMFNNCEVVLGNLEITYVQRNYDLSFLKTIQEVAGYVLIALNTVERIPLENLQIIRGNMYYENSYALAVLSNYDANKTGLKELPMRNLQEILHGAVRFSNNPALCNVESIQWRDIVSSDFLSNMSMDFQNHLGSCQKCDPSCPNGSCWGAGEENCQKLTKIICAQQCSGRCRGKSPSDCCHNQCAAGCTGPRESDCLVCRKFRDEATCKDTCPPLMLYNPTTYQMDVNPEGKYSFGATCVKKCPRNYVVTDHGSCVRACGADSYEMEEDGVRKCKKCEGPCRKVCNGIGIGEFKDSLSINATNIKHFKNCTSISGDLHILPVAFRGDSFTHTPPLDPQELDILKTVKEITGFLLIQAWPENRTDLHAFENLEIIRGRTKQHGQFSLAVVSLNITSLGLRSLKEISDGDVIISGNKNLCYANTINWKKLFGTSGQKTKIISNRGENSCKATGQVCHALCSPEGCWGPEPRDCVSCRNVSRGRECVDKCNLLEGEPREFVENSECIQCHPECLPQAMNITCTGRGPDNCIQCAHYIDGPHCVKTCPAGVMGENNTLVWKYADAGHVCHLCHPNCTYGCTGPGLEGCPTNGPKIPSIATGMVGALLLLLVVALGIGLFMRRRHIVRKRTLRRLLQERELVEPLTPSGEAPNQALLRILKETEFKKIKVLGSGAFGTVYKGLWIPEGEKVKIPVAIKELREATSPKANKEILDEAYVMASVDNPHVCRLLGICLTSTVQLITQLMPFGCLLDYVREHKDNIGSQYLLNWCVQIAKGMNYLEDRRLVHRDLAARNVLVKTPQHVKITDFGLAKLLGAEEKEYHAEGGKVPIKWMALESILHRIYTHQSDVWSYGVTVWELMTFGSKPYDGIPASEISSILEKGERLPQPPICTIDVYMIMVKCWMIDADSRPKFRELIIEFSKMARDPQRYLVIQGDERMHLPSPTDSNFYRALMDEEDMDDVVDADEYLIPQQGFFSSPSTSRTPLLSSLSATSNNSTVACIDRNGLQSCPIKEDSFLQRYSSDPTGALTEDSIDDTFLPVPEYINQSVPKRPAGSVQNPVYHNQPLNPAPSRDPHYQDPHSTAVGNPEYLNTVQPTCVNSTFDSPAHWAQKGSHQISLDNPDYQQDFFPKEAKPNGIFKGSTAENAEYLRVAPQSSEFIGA
T2 sequence (P09619 33-1106): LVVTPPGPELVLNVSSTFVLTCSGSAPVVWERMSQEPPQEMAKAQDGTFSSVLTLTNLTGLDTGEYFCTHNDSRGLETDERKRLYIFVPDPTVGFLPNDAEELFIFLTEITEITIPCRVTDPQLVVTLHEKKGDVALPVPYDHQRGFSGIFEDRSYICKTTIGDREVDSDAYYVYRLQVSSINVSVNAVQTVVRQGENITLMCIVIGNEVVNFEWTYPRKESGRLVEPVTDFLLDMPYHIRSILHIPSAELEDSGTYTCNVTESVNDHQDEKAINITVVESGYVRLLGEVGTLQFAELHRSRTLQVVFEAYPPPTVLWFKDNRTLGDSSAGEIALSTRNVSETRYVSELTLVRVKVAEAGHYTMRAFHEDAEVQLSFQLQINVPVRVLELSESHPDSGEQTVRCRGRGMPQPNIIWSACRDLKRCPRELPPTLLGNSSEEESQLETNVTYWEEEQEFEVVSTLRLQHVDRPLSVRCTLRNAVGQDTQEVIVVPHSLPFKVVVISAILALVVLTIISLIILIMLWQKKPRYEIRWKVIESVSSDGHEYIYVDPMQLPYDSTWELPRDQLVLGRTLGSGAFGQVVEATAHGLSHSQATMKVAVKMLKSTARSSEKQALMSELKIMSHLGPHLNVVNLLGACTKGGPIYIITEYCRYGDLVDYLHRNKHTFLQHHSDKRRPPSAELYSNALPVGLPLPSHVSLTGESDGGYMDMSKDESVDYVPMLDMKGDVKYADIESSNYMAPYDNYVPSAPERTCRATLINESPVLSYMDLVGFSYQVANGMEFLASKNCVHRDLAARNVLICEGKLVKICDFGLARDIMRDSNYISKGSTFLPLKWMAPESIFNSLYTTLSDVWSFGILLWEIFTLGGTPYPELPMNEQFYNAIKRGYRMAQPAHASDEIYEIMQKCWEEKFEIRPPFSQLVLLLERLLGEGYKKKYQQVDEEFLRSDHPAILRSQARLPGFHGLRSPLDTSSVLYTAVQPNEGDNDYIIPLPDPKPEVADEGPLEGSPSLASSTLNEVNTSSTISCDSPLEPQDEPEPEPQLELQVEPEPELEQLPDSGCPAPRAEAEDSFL
T4 sequence (P09619 33-1106): as above

SMILES | IC50 (PDGFR [1]; [4]) | IC50 (PDGFR [2]) | IC50 (HER2) | IC50 (EGFR) | IC50 (FLK-1) | also measured
N#CC(=Cc1ccc(O)c(O)c1)c1c(C#N)c(N)nn1-c1ccccc1 [Compound C10] | 25 µM | 25 µM | – | – | – | HER2 phosphorylation (HER2): effects EGF-4, PDGF-R, and HER2 phosphorylation; PDGF-R phosphorylation (PDGFR [1]): effects EGF-4, PDGF-R, and HER2 phosphorylation; EGF receptor phosphorylation (EGFR): effects EGF-4, PDGF-R, and HER2 phosphorylation
CC(C)(C)c1cc(C=C(C#N)c2[nH]nc(N)c2C#N)cc(C(C)(C)C)c1O [Compound C13] | – | – | 29 µM | 16 µM | 3.3 µM | IC50 (PDGFR [3]): 16 µM
N#CC(=Cc1c[nH]c2ccccc12)C(N)=O [Compound D13] | 30 µM | 30 µM | – | – | > 50 µM | –
CN(C)CCn1cc(C=C(C#N)c2[nH]nc(N)c2C#N)c2ccccc21 [Compound D18] | – | – | > 50 µM | > 50 µM | > 50 µM | IC50 (PDGFR [3]; read-out: PDGFR IC50): 34 µM
N#CC(=Cc1c[nH]c2ccccc12)c1c(C#N)c(N)nn1-c1ccccc1 [Compound D20] | – | – | > 50 µM | > 50 µM | > 50 µM | IC50 (PDGFR [3]; read-out: PDGFR IC50): 14 µM
CCOc1ccccc1NC(=O)C(=O)NN=Cc1ccc(O)c(O)c1 [Compound E14] | 10 µM | 100 µM | – | – | > 50 µM | –
c1ccc(-c2cnc3ccccc3n2)cc1 [Compound G10] | 10 µM | 10 µM | – | – | > 50 µM | –
COc1cc2cc(-c3ccccc3)c(Cl)nc2cc1OC [Compound G12] | 10 µM | 10 µM | – | – | > 50 µM | HER2 phosphorylation (HER2): do not effect EGF or HER2 phosphorylation; PDGF-R phosphorylation (PDGFR [1]): inhibit PDGF-R phosphorylation; EGF receptor phosphorylation (EGFR): do not effect EGF or HER2 phosphorylation
O=[N+]([O-])c1ccc2ncc(-c3ccccc3)nc2c1 [Compound G23] | – | – | > 100 µM | > 100 µM | 325 µM | IC50 (PDGFR [1]; read-out: PDGFR IC50 (W); W = done in Western assay): 25 µM
Cc1cc2ncc(-c3ccc([N+](=O)[O-])cc3)nc2cc1C [Compound G27, 2-(4-nitrophenyl) 6.7 dimethylquinoxaline] | – | – | > 50 µM | > 100 µM | > 50 µM | IC50 (PDGFR [3]; read-out: PDGFR IC50): 48 µM
Cc1cc2ncc(Nc3cccc(Br)c3)nc2cc1C [Compound G28] | – | – | – | – | – | IC50 (PDGF-R (U1242); scndry, read-out: U1242 KINASE IC50 (scndry)): 16.4 µM; IC50 (C6 cells): 4.5 µM
CC1c2nc3ccccc3c(=O)n2C(c2cccc(O)c2)N1Cc1ccccc1 (stereo not drawn) [Compound H12] | 25 µM | 30 µM | – | – | – | IC50 (PDGF-R (U1242); [5]): > 250 µM and 25 µM; IC50 (C6 cells): 19 µM
N#CC(=Cc1cc(O)c(O)c(Br)c1)C(=O)NCCCNC(=O)C(C#N)=Cc1cc(O)c(O)c(Br)c1 [Compound P10] | 3 µM | – | > 100 µM | 31 µM | > 25 µM | IC50 (PDGF-R (U1242); [5]): 3 µM; IC50 (C6 cells): 12 µM
O=C(Nc1cc(C(F)(F)F)cc(C(F)(F)F)c1)c1cccs1 [Compound P12] | 25 µM | – | > 50 µM | – | > 50 µM | –
Cc1cc2ccccc2c[n+]1[O-] [Compound P13] | – | – | – | – | – | IC50 (PDGF-R (U1242); read-out: U1242 KINASE IC50): 1.2 µM; IC50 (C6 cells): > 100 µM
COc1cccc(NC(=S)C(C#N)C(=O)N2CCCC2)c1 (stereo not drawn) [Compound P21, N-3-methoxyphenyl (2-cyano-2-N-pyrrolidinycarbonyl) thioacetamide] | – | – | – | – | – | IC50 (PDGF-R (U1242); read-out: U1242 KINASE IC50): 93 µM; IC50 (C6 cells): > 25 µM
N#CC(=Cc1ccc(O)c(O)c1)C(=O)NCc1ccc(F)cc1 [Compound P25] | 30 µM | – | > 100 µM | > 100 µM | > 500 µM | –
